According to paper PMC6447871, “Design, Synthesis, Molecular Modeling, In Silico ADME Studies and Anti-HIV-1 Assay of New Diazocoumarin Derivatives” (Iranian Journal of Pharmaceutical Research : IJPR, 2018):
pEC50: −log10 of the molar value.

Legend:
[1] = XTT proliferation assay (cellular toxicity); details: human
Protocol: (§1) Anti-HIV-1 activity of synthesized compounds was evaluated in single cycle replication assay which was evaluated in our laboratory and reported previously ([32]-[35]). In this assay, the single-cycle replicable HIV NL4-3 virions (200 ng p24) were inoculated concurrently with compounds in different concentrations to the Hela cells. The inhibition rate (%) of p24 expression was measured by capture ELISA (Biomerieux, France) 72 hours after inoculation. Percentage inhibition of p24 expression in treated culture was calculated as inhibition rate of p24 (%). The XTT (sodium3-[1(phenylaminocarbonyl)-3,4-tetrazolium]-bis(4-methoxy-6-nitro)benzene sulfonic acid) proliferation assay was conducted to evaluate the cellular toxicity according to kit instructions ([36], [37]). Cytotoxicity test was performed exactly after the p24 assay.
(§2) Compounds 11a-h were assayed for anti-HIV-1 activity in single cycle replication method which reflects only one round of infection. Anti-HIV activity of compounds was measured as inhibition rate (%) of p24 expression in Hela cells cultures. Azidothymidine (AZT) was the positive control in the test. The cytotoxic properties were measured in the same cells by XTT proliferation assay and reported as percentage of cell viability.

HIV-1 [2] = assay: microbe, parasite or virus in culture; type: cell-based; details: Human immunodeficiency virus 1, NL43, M-HeLa, 72 h, read-out: (%) Inhibition rate of p24 expression
Protocol: as §1, §2

HIV-1 [3] = test system: HIV-1; parameters: method as in earlier work; details: read-out: EC50 (anti-HIV-1 activity); cited from earlier work
[4] = parameters: method as in earlier work; details: read-out: CC50 (cytotoxicity); cited from earlier work

O=c1oc2ccccc2c(O)c1N=Nc1ccc(-c2nnc(SCc3ccccc3F)o2)cc1 [Compound 11g, 3-((4-(5-(2-Fluorobenzylthio)-1,3,4-oxadiazol-2-yl)phenyl)diazenyl)-4-hydroxy-2H-chromen-2-one]
viability at 72 h, 100 µM [1]: 74%
inhibition at 100 µM (HIV-1 [2]): 22%
melting point: 240.1 to 242.2 °C

O=c1c(-c2nnc(SCc3ccccc3F)o2)c[nH]c2c(-c3ccccc3)cccc12 [Compound 3]
pEC50 (HIV-1 [3]): 4.30
CC50 [4]: > 100 µM

O=c1oc2ccccc2c(O)c1N=Nc1ccc(-c2nnc(SCc3ccc(Cl)cc3)o2)cc1 [Compound 11f, 3-((4-(5-(4-Chlorobenzylthio)-1,3,4-oxadiazol-2-yl)phenyl)diazenyl)-4-hydroxy-2H-chromen-2-one]
viability at 72 h, 100 µM [1]: 100%
inhibition at 100 µM (HIV-1 [2]): 52%
melting point: 260.8 to 263.8 °C

O=c1oc2ccccc2c(O)c1N=Nc1ccc(-c2nnc(SCc3ccccc3)o2)cc1 [Compound 11d, 3-((4-(5-(Benzylthio)-1,3,4-oxadiazol-2-yl)phenyl)diazenyl)-4-hydroxy-2H-chromen-2-one]
viability at 72 h, 100 µM [1]: 94%
inhibition at 100 µM (HIV-1 [2]): 6%
melting point: 243.1 to 243.8 °C

CCSc1nnc(-c2ccc(N=Nc3c(O)c4ccccc4oc3=O)cc2)o1 [Compound 11b, 3-((4-(5-(Ethylthio)-1,3,4-oxadiazol-2-yl)phenyl)diazenyl)-4-hydroxy-2H-chromen-2-one]
viability at 72 h, 100 µM [1]: 100%
inhibition at 100 µM (HIV-1 [2]): 5%
melting point: 290 to 291 °C (dec.)

Cc1cn([C@H]2C[C@H](N=[N+]=[N-])[C@@H](CO)O2)c(=O)[nH]c1=O [AZT, Azidothymidine, reference compound]
viability at 72 h, 100 µM [1]: 92%
inhibition at 100 µM (HIV-1 [2]): 58%

CCCSc1nnc(-c2ccc(N=Nc3c(O)c4ccccc4oc3=O)cc2)o1 [Compound 11c, 4-Hydroxy-3-((4-(5-(propylthio)-1,3,4-oxadiazol-2-yl)phenyl)diazenyl)-2H-chromen-2-one]
viability at 72 h, 100 µM [1]: 93%
inhibition at 100 µM (HIV-1 [2]): 32%
melting point: 205.5 to 206.8 °C

CSc1nnc(-c2ccc(N=Nc3c(O)c4ccccc4oc3=O)cc2)o1 [Compound 11a, 4-Hydroxy-3-((4-(5-(methylthio)-1,3,4-oxadiazol-2-yl)phenyl)diazenyl)-2H-chromen-2-one]
viability at 72 h, 100 µM [1]: 51%
inhibition at 100 µM (HIV-1 [2]): 79%
melting point: 211.6 to 212.1 °C

O=c1oc2ccccc2c(O)c1N=Nc1ccc(-c2nnc(SCc3ccccc3Cl)o2)cc1 [Compound 11e, 3-((4-(5-(2-Chlorobenzylthio)-1,3,4-oxadiazol-2-yl)phenyl)diazenyl)-4-hydroxy-2H-chromen-2-one]
viability at 72 h, 100 µM [1]: 75%
inhibition at 100 µM (HIV-1 [2]): 33%
melting point: 236.8 to 237.5 °C

O=c1oc2ccccc2c(O)c1N=Nc1ccc(-c2nnc(SCc3ccc(F)cc3)o2)cc1 [Compound 11h, 3-((4-(5-(4-Fluorobenzylthio)-1,3,4-oxadiazol-2-yl)phenyl)diazenyl)-4-hydroxy-2H-chromen-2-one]
viability at 72 h, 100 µM [1]: 100%
inhibition at 100 µM (HIV-1 [2]): 25%
melting point: 246.6 to 251.6 °C
